From US20130160151A1, “TRANSGENIC ANIMAL AS A MODEL FOR IDENTIFYING ADULT STEM CELLS, AND USES THEREOF” (Universite Pierre et Marie Curie (PARIS 6), priority 2010, published 2013)
Entries after “also recorded” stand apart in the source; their conditions may differ.

Key:
skin stem cells = test: Screening feasibility: number of blue clones per well of skin stem cells treated with factors; format: cell-based, mouse; conditions: skin stem cells from 7 week-old Pw1nlacZ mice, 2 cells/μl, factors added after 3 days in culture, a week treatment, duplicates
Description: FIG. 9 is a graph showing the number of clones of skin stem cells after a week treatment with various factors (EGF, BMP2, BMP4, Activin A).
Fluorescence-activated cell sorting has been performed, dorsal skin from 7 week-old Pw1^nlacZ mice (n=3-5) were collected and cell preparation was obtained. For detection of nuclear β-galactosidase activity, a fluorescein di-β-D-galactopyranoside (FDG) staining kit (Invitrogen) was used according to manufacturer's instructions. Cells were then plated on 24 or 96 wells at density of 2 cells/μl. The cells were treated with 4 different factors after 3 days in culture: • EGF, Human recombinant protein from R&D system • BMP2, Human recombinant protein from Humanzyme • BMP4, Human recombinant protein from Humanzyme • Activin A, Human recombinant protein from Humanzyme
The analysis of the effect of different factors has been done using a simple readout: counting the number of blue clones per well. […] This experiment has been done in duplicates.

β-gal positive cells = test: In vitro culture of FAC-sorted blue (β-gal positive) cells with or without EGF; format: cell-based; conditions: medium containing EGF vs without EGF; FAC-sorted blue cells of the transgenic mouse
Description: FIGS. 6A and 6B show in vitro culture of β-gal positive cells after FAC sorting in absence (6A) or in presence (6B) of EGF.
The inventors isolated cells from a transgenic mouse as obtained in Example 1, and isolated them by FAC sorting. Only the blue cells were cultured in vitro.
Then for proof of concept, the cells were contacted with human recombinant EGF or without EGF. The growth factor was tested for its ability to keep the cells blue over time.

EGF: Human recombinant protein from R&D system
number of blue clones per well (cell growth) (skin stem cells): allows the cells to grow
number of blue cells per clone (β-gal positive cells): greater; also recorded: higher
number of blue clones (β-gal positive cells): greater; also recorded: higher
